Experimental data: patent US8496974B2, “Method for preparing a composition comprising a compound mixture and a carrier agent” (Oy Granula AB Ltd, priority 2008, dated 2013)
Read-outs that look alike come from different tables or passages of the source.

Columns and labels:
human keratinocyte cells = type: cell-based; conditions: 24 h incubation, total protein quantity
[1] = Antioxidative capacity: inhibition of the peroxidation of lipids; type: biochemical; conditions: pure polyphenols isolated from wood materials
From the text: In Tables 4A, 4B, 4C and 4D, there are represented antioxidative and free radical capturing effects of pure polyphenolic compounds and of unpurified polyphenolic compounds containing raw extracts obtained from wood bark and stem knotwood.

[2] = Peroxide radicals capturing capacity; type: biochemical; conditions: pure polyphenols isolated from wood material
From the text: Tables 4C and 4D further represent the free radicals capturing capacity of certain pure polyphenols and unpurified polyphenol extracts with respect to peroxide radicals.

[3] = pure polyphenols; footnote 1: Willför et al., J. Agric. Food. Chem, 51, 26 (2003); cited from earlier work
[4] = pure polyphenols; footnote 1: Willför et al., J. Agric. Food. Chem., 51, 7600-7606 (2003); cited from earlier work

Molecule	EC20 ppm 24 h (limit value by which 20% of the cultivated cells died) (human keratinocyte cells) [ppm]	EC50 μg/L, concentration which inhibits 50% of the peroxidation of the lipids [1] [µg/L]	capturing capacity mmol/g (peroxide radicals) [2] [mmol/g]	EC50 μg/L, concentration which inhibits 50% of the peroxidation of the lipids [3] [µg/L]	capturing capacity mmol/g (peroxide radicals) [4] [mmol/g]
Cc1cc(C(C)(C)C)c(O)c(C(C)(C)C)c1 [BTH, butylated hydroxytoluene]	5.50	–	–	–	–
COc1cc([C@H]2c3cc(O)c(OC)cc3C[C@@H](CO)[C@@H]2CO)ccc1O [Cyclolariciresinol]	–	17	12	–	–
O=C1c2c(O)cc(O)cc2O[C@H](c2ccc(O)cc2)[C@H]1O [Dihydrokaempferol]	–	488	0.78	–	–
COc1cc(C[C@H]2C(=O)OC[C@@H]2[C@H](O)c2ccc(O)c(OC)c2)ccc1O [Hydroxymatairesinol]	–	–	–	58	5.6
COc1cc(C[C@H]2CO[C@H](c3ccc(O)c(OC)c3)[C@H]2CO)ccc1O [Lariciresinol]	–	–	–	126	2.7
COc1cc(C[C@H]2COC(=O)[C@@H]2Cc2ccc(O)c(OC)c2)ccc1O [Matairesinol]	–	–	–	99	2.9
Oc1ccc([C@H]2Oc3c(ccc(O)c3O)[C@@H](O)[C@H]2O)cc1O [Melacasidine]	–	36	20	–	–
COc1cc(C[C@H]2COC(=O)[C@]2(O)Cc2ccc(O)c(OC)c2)ccc1O [Nortrachelogenin]	–	–	–	53	5.9
O=C1C[C@@H](c2ccccc2)Oc2cc(O)cc(O)c21 [Pinosembrin]	–	1135	0.49	–	–
Oc1cc(O)cc(/C=C/c2ccccc2)c1 [Pinosylvin]	–	50	0.78	–	–
COc1cc(C[C@@H](CO)[C@H](CO)Cc2ccc(O)c(OC)c2)ccc1O [Secoisolariciresinol]	–	–	–	37	8.5
O=C1c2c(O)cc(O)cc2O[C@H](c2ccc(O)c(O)c2)[C@H]1O [Taxifolin]	–	–	–	46	16
Oc1ccc([C@H]2Oc3c(ccc(O)c3O)[C@@H](O)[C@H]2O)cc1 [Teracasidine]	–	50	7.8	–	–
Pinoresinol	–	20	7.8	–	–
